Assay results reported in article PMC5011342, “A high throughput drug screening assay to identify compounds that promote oligodendrocyte differentiation using acutely dissociated and purified oligodendrocyte precursor cells” (BMC Research Notes, 2016).
Where two headings read alike, the source gives them in different places.

Experiments:
expanded OPCs = test: cells; conditions: for viability at 0.1 µM / viability at 1 µM / viability at 10 µM: Rattus norvegicus, 72 h
Summary of the method: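 Toxicity screen: compounds added at 0.1, 1 and 10 µM to PDGF-AA-expanded OPCs in 96-well plates, 3-day incubation at 37 °C, 10% CO2, then alamarBlue 1:10 for 4 h with fluorescence readout. Results set screening doses of 10/2, 2/0.4 or 0.4/0.08 µM.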

[1] = tested on: acutely dissociated and purified rat OPCs; test: Acute OL differentiation assay (MBP expression/cell, immunofluorescent image quantification); assay type: cell-based; conditions: for activation at 2 µM / activation at 10 µM / activation at 0.4 µM: Rattus norvegicus
Summary of the method: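 This acute differentiation assay used purified rat OPCs from postnatal day 6–7 pups, seeded into PDL/laminin-coated 96-well plates in differentiation medium lacking PDGF and FGF. Compounds were applied in quadruplicate after a 1–2 h preincubation at 37 °C, 10 % CO2, with 0.1 % DMSO negative and 40 ng/ml T3 positive controls in eight wells. After fixation on DIV4, anti-MBP immunofluorescence images yielded MBP expression/cell.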

[2] = read-out: 0.1 µM (% DMSO), alamarBlue viability of expanded OPCs, compound at 0.1 µM, sheet All Tox data
[3] = read-out: 1 µM (% DMSO), alamarBlue viability of expanded OPCs, compound at 1 µM, sheet All Tox data
[4] = read-out: 10 µM (% DMSO), alamarBlue viability of expanded OPCs, compound at 10 µM, sheet All Tox data
[5] = 2 uM test compound, relative to quetiapine, sheet "All OLga data", read-out: OL differentiation, 2 uM (% Quet)
[6] = 10 uM test compound, relative to quetiapine, sheet "All OLga data", read-out: OL differentiation, 10 uM (% Quet)
[7] = alamarBlue viability of expanded OPCs, compound at 0.1 µM, relative to DMSO control
[8] = alamarBlue viability of expanded OPCs, compound at 1 µM, relative to DMSO control
[9] = alamarBlue viability of expanded OPCs, compound at 10 µM, relative to DMSO control
[10] = test compound at 2 uM, MBP expression relative to quetiapine, NCC library screen, sheet "All OLga data", read-out: 2 uM (% Quet)
[11] = test compound at 10 uM, MBP expression relative to quetiapine, NCC library screen, sheet "All OLga data", read-out: 10 uM (% Quet)
[12] = read-out: 0.1 µM (% DMSO), alamarBlue viability, NCC library compound at 0.1 µM, sheet "All Tox data"
[13] = read-out: 1 µM (% DMSO), alamarBlue viability, NCC library compound at 1 µM, sheet "All Tox data"
[14] = read-out: 10 µM (% DMSO), alamarBlue viability, NCC library compound at 10 µM, sheet "All Tox data"
[15] = test compound at 2 uM, NCC library screen, sheet "All OLga data", relative to quetiapine, read-out: 2 uM (% Quet)
[16] = test compound at 10 uM, NCC library screen, sheet "All OLga data", relative to quetiapine, read-out: 10 uM (% Quet)

CC(C)NCC(O)COc1ccc(COCCOC(C)C)cc1 (stereo not shown) [Bisoprolol]
viability at 0.1 µM (expanded OPCs; [2]): 91.3%
viability at 1 µM (expanded OPCs; [3]): 89.8%
viability at 10 µM (expanded OPCs; [4]): 96.5%
activation at 2 µM [1, 5]: -18.8%
activation at 10 µM [1, 6]: -17.3%

Brc1c(NC2=NCCN2)ccc2nccnc12 [Brimonidine]
0.1 µM (% DMSO) (expanded OPCs; [7]): 91.9 % DMSO
1 µM (% DMSO) (expanded OPCs; [8]): 99.2 % DMSO
10 µM (% DMSO) (expanded OPCs; [9]): 95.4 % DMSO
activation at 2 µM [1, 10]: 21.9%
activation at 10 µM [1, 11]: 8.8%

CN(C)CCC(c1ccc(Br)cc1)c1ccccn1 (stereo not shown) [Brompheniramine]
viability at 0.1 µM (expanded OPCs; [12]): 95.3%
viability at 1 µM (expanded OPCs; [13]): 84.4%
viability at 10 µM (expanded OPCs; [14]): 39.2%
activation at 0.4 µM ([1]; 0.4 uM test compound, relative to quetiapine, sheet "All OLga data", read-out: OL differentiation, 0.4 uM (% Quet)): -2%
activation at 2 µM [1, 5]: 0.5%

COc1cc2c(cc1OC)[C@@]13CCN4CC5=CCO[C@H]6CC(=O)N2[C@H]1[C@H]6[C@H]5C[C@H]43 [Brucine]
viability at 0.1 µM (expanded OPCs; [12]): 93%
viability at 1 µM (expanded OPCs; [13]): 79.4%
viability at 10 µM (expanded OPCs; [14]): 46.6%
activation at 0.4 µM ([1]; test compound at 0.4 uM, NCC library screen, sheet "All OLga data", relative to quetiapine, read-out: 0.4 uM (% Quet)): -2.6%
activation at 2 µM [1, 15]: 11%

CCCC1O[C@@H]2C[C@H]3[C@@H]4CCC5=CC(=O)C=C[C@]5(C)[C@H]4[C@@H](O)C[C@]3(C)[C@]2(C(=O)CO)O1 (stereo partly shown) [Budesonide]
0.1 µM (% DMSO) (expanded OPCs; [7]): 112.0 % DMSO
1 µM (% DMSO) (expanded OPCs; [8]): 115.9 % DMSO
10 µM (% DMSO) (expanded OPCs; [9]): 95.7 % DMSO
activation at 2 µM [1, 10]: 20.2%
activation at 10 µM [1, 11]: -2.2%

COc1cc(OC)c(C(=O)CCCN2CCCC2)c(OC)c1 [Buflomedil]
viability at 0.1 µM (expanded OPCs; [2]): 105%
viability at 1 µM (expanded OPCs; [3]): 97.6%
viability at 10 µM (expanded OPCs; [4]): 124%
activation at 2 µM [1, 5]: -16.4%
activation at 10 µM [1, 6]: 24.4%

CCCCNc1cc(C(=O)O)cc(S(N)(=O)=O)c1Oc1ccccc1 [Bumetanide]
0.1 µM (% DMSO) (expanded OPCs; [7]): 92.3 % DMSO
1 µM (% DMSO) (expanded OPCs; [8]): 97.8 % DMSO
10 µM (% DMSO) (expanded OPCs; [9]): 92.2 % DMSO
activation at 2 µM [1, 15]: -20.2%
activation at 10 µM [1, 16]: -11.6%

CCCCN1CCCCC1C(=O)Nc1c(C)cccc1C (stereo not shown) [Bupivacaine]
viability at 0.1 µM (expanded OPCs; [12]): 79.1%
viability at 1 µM (expanded OPCs; [13]): 83.4%
viability at 10 µM (expanded OPCs; [14]): 70.5%
activation at 2 µM [1, 15]: -1%
activation at 10 µM [1, 16]: 7%

CC(NC(C)(C)C)C(=O)c1cccc(Cl)c1 (stereo not shown) [Bupropion]
viability at 0.1 µM (expanded OPCs; [2]): 94.3%
viability at 1 µM (expanded OPCs; [3]): 98.9%
viability at 10 µM (expanded OPCs; [4]): 128%
activation at 2 µM [1, 5]: 33.6%

O=C1CC2(CCCC2)CC(=O)N1CCCCN1CCN(c2ncccn2)CC1 [Buspirone]
0.1 µM (% DMSO) (expanded OPCs; [7]): 98.1 % DMSO
1 µM (% DMSO) (expanded OPCs; [8]): 95.9 % DMSO
10 µM (% DMSO) (expanded OPCs; [9]): 122.3 % DMSO
activation at 2 µM [1, 10]: 11.2%
activation at 10 µM [1, 11]: 38.1%

CS(=O)(=O)OCCCCOS(C)(=O)=O [Busulfan]
0.1 µM (% DMSO) (expanded OPCs; [7]): 93.9 % DMSO
1 µM (% DMSO) (expanded OPCs; [8]): 91.8 % DMSO
10 µM (% DMSO) (expanded OPCs; [9]): 79.1 % DMSO
activation at 2 µM [1, 15]: 2.3%
activation at 10 µM [1, 16]: -6.2%

OC[C@H]1O[C@@H](n2cnc3c(NC4CCCC4)nc(Cl)nc32)[C@H](O)[C@@H]1O [CCPA]
0.1 µM (% DMSO) (expanded OPCs; alamarBlue viability, NCC library compound at 0.1 µM, sheet "All Tox data"): 87.1 % DMSO
1 µM (% DMSO) (expanded OPCs; alamarBlue viability, NCC library compound at 1 µM, sheet "All Tox data"): 88.1 % DMSO
10 µM (% DMSO) (expanded OPCs; alamarBlue viability, NCC library compound at 10 µM, sheet "All Tox data"): 93.0 % DMSO
2 uM (% Quet) ([1]; test compound at 2 uM, NCC library screen, sheet "All OLga data", relative to quetiapine): -30.5 % Quet
10 uM (% Quet) ([1]; test compound at 10 uM, NCC library screen, sheet "All OLga data", relative to quetiapine): -64.0 % Quet

Nc1nc2ccc(Cl)cc2c2nc(-c3ccco3)nn12 [CGS 15943]
viability at 0.1 µM (expanded OPCs; read-out: 0.1 µM (% DMSO)): 81.2%
viability at 1 µM (expanded OPCs; read-out: 1 µM (% DMSO)): 94.8%
viability at 10 µM (expanded OPCs; read-out: 10 µM (% DMSO)): 112%
activation at 2 µM ([1]; read-out: OL differentiation, 2 uM (% Quet)): -24.4%
activation at 10 µM ([1]; read-out: OL differentiation, 10 uM (% Quet)): -126%
